Experimental data from paper PMC9966435, “Synthesis and Biological Evaluation of 3-Amidoquinuclidine Quaternary Ammonium Compounds as New Soft Antibacterial Agents” (Pharmaceuticals, 2023).
Like-named read-outs stand apart in the source and are kept apart here.

Key:
Assay type in all cases: cell-based
[1] = tested on: Staphylococcus aureus Clinical/MRSA; test: Broth microdilution MIC in Mueller Hinton broth; conditions: for MIC: Staphylococcus aureus, MRSA, read-out: Minimum Inhibitory Concentration (MIC) Staphylococcus aureus Clinical/MRSA
[2] = tested on: Staphylococcus aureus ATCC 25923 biofilm; test: Biofilm inhibition assay (crystal violet); conditions: ATCC25923, 12.5 μg mL−1, 48 h
Protocol: Therefore, we investigated the antibiofilm activity of the new 3-amidoquinuclidine QACs against the biofilm-forming pathogen S. aureus ATCC 25923, which causes opportunistic infections of various tissues in humans. […] Antibiofilm activity was evaluated at four different concentrations (12.5, 25, 50, and 100 μ g mL^−1), and as shown on the crystal violet heat map (CV) (Figure 3A), all compounds have the potential to inhibit biofilm formation, albeit at different concentrations.
Minimum biofilm inhibitory concentration (MBIC) was determined against Staphylococcus aureus ATCC 25923. Compounds were dissolved in MHB and serially diluted in 96-well plates with a final mass concentration ranging from 100 to 12.5 µg/mL. The exponentially grown culture (OD600 = 0.3–0.5) of S. aureus ATCC 25923 was diluted to a final concentration of 5 × 10^6 CFU/mL. Then, 50 µL of such prepared cell culture was added to the 96-well plates containing twofold dilutions of the compound to be tested. The plates were incubated for 48 h. After incubation, the broth over the biofilm was aspirated, and the plate with the biofilm was dried at 60 °C. […] Absorbance was measured at 595 nm in an optical reader. The percentage of biofilm formed was calculated by dividing the absorbance of the well containing the tested substance by the absorbance of the untreated bacterial cells and multiplying by 100.

[3] = tested on: Staphylococcus aureus ATCC25923; test: Broth microdilution MIC in Mueller Hinton broth
[4] = tested on: Listeria monocytogenes ATCC7644; test: Broth microdilution MIC in Mueller Hinton broth
[5] = tested on: Staphylococcus aureus ATCC 25923; test: MIC in cation-adjusted Mueller Hinton broth (CA-MHB); conditions: ATCC25923, read-out: MIC CA-MHB
Protocol: A representative bacterial strain, Staphylococcus aureus ATCC 25923, was grown overnight in Mueller Hinton broth (MHB). The following day, the culture was diluted in tempered MHB and allowed to grow at 37 °C with constant shaking of 220 rpm. Once the bacterial culture reached the exponential growth phase (OD600 = 0.3–0.5), it was diluted in the cation-adjusted Mueller Hinton broth (CA-MHB) containing MgCl2 (10 mM) to the final cell count of 5 × 10^5 CFU/mL. The previously prepared 96-well plate contained twofold serial dilutions of the compounds to be tested, dissolved in CA-MHB, in the concentrations range of 125 µM to 0.12 µM. Then, 50 µL of the bacterial cells diluted in CA-MHB was pipetted in each well of the plate and incubated overnight at 37 °C with constant shaking at 220 rpm. The next day, the minimum inhibitory concentration (MIC) was determined as the lowest concentration of the compound that prevented supposed bacterial growth in the wells. Visually determined results of antibacterial activity were confirmed by the addition of 20 µL 2-(4-iodophenyl)-3-(4-nitrophenyl)-5-phenyltetrazolium chloride (INT) reagent (6 mg/mL). The MIC value of a drug in CA-MHB containing NaCl (85 mM) was determined using the same experimental technique.

[6] = tested on: Staphylococcus aureus ATCC 25923; test: MIC in Dulbecco's Modified Eagle Medium (DMEM); conditions: ATCC25923, read-out: MIC DMEM
Protocol: The overnight culture of Staphylococcus aureus ATCC 25923 was diluted in fresh Mueller Hinton broth (MHB) and placed in an orbital shaker incubator (Gallenkamp, Cambridge, UK) at 37 °C and 220 rpm. Once the culture reached the exponential growth phase (OD600 = 0.3–0.5), cells were centrifuged (Heraeus, Biofuge primo R, Hanau, Germany) at room temperature at a speed of 4000× g. The cell pellet was resuspended in tempered Dulbecco’s Modified Eagle Medium (DMEM) to a final concentration of 5 × 10^5 CFU/mL. Then, 50 µL of as-prepared cells were added to a 96-well plate containing twofold serial dilutions of tested compounds in DMEM medium in the range of concentrations from 125 µM to 0.12 µM. The minimum inhibitory concentration (MIC) was visually assessed the next day. The MIC was determined as the lowest concentration of the substance at which no apparent bacterial growth was seen.

[7] = tested on: Staphylococcus aureus ATCC33591; test: Broth microdilution MIC in Mueller Hinton broth
[8] = tested on: Bacillus cereus ATCC14579; test: Broth microdilution MIC in Mueller Hinton broth
[9] = tested on: Escherichia coli ATTC25922; test: Broth microdilution MIC in Mueller Hinton broth
[10] = tested on: Enterococcus faecalis ATCC29212; test: Broth microdilution MIC in Mueller Hinton broth
[11] = tested on: Salmonella enterica food isolate; test: microbe, parasite or virus in culture; conditions: MHB, read-out: Minimum Inhibitory Concentration (MIC) Salmonella enterica food isolate
[12] = tested on: Pseudomonas aeruginosa ATTC27853; test: Broth microdilution MIC in Mueller Hinton broth
[13] = tested on: Staphylococcus aureus ATCC 25923; test: Time-resolved growth analysis
Protocol: The growth kinetic experiments were performed to further investigate the efficacy of the selected 3-amidoquinnuclidine candidates. The candidates from series 1 (QC14-Me, QC14-Ally, QC16-Me, and QC16-Ally) and series 3 (QBn-C12, QBn-C14, and QBn-C16) were incubated at MIC and ½ MIC for 350 min with an appropriate number of CFU of Staphylococcus aureus ATCC 25923 at 37 °C with shaking. Time-resolved growth analysis was performed along with the control, in which bacterial growth was monitored without the presence of the antibacterial agent.
Time-resolved growth analysis was performed in the microtiter plate reader (Bio-Tek EL808, Winooski, VT, USA) by incubating the selected antibacterial agent with Staphylococcus aureus ATCC 25923. The exponentially grown culture (OD600 = 0.3–0.5) of S. aureus ATCC 25923 was diluted to a final concentration of 5 × 10^4 CFU/mL. Then, 50 µL of such prepared cell culture was added to the 96-well plates containing the MIC or ½ MIC of the compound to be tested. The plates were incubated at 37 °C for 350 min in the microplate reader with shaking. OD600 was recorded at 10 min intervals. The results obtained represent the mean of two independent experiments performed in triplicate.

[14] = tested on: Staphylococcus aureus ATCC 33591; conditions: MIC in MHB vs MIC with 10 µM CCCP, S. aureus ATCC 33591
Protocol: Bacterial susceptibility toward (±)3-amidoquinuclidine quaternary ammonium compounds was evaluated in the presence of an ATP synthesis inhibitor carbonyl cyanide 3-chlorophenylhydrazone (CCCP) (Sigma Aldrich). The minimum inhibitory concentration (MIC) of CCCP against Staphylococcus aureus ATCC 33591 (MRSA) was established before the experiment. The overnight culture of Staphylococcus aureus ATCC 33591 was diluted in tempered Mueller Hinton broth (MHB) and cultivated in the orbital shaker at 37 °C and 220 rpm. When the culture reached the preexponential phase of growth (OD600 = 0.3–0.5), it was diluted to a final concentration of 5 × 10^5 CFU/mL in MHB containing 10 µM CCCP. A total of 50 µL of prepared cell suspension was pipetted into a 96-well plate containing twofold serial dilutions of tested compounds in MHB with CCCP at a final concentration of 10 µM. Plates were incubated overnight, and the MIC reduction of tested compounds in the presence of 10 µM CCCP was recorded the following day.

[15] = MHB, read-out: Minimum Inhibitory Concentration (MIC) Staphylococcus aureus ATCC25923
[16] = Staphylococcus aureus, ATCC25923, read-out: Minimum Inhibitory Concentration (MIC) Staphylococcus aureus ATCC25923
[17] = Listeria monocytogenes, ATCC7644, read-out: Minimum Inhibitory Concentration (MIC) Listeria monocytogenes ATCC7644
[18] = Staphylococcus aureus, ATCC33591, read-out: Minimum Inhibitory Concentration (MIC) Staphylococcus aureus ATCC33591
[19] = Bacillus cereus, ATCC14579, read-out: Minimum Inhibitory Concentration (MIC) Bacillus cereus ATCC14579
[20] = Escherichia coli, ATTC25922, read-out: Minimum Inhibitory Concentration (MIC) Escherichia coli ATTC25922
[21] = Enterococcus faecalis, ATCC29212, read-out: Minimum Inhibitory Concentration (MIC) Enterococcus faecalis ATCC29212
[22] = Pseudomonas aeruginosa, ATTC27853, read-out: Minimum Inhibitory Concentration (MIC) Pseudomonas aeruginosa ATTC27853

Structure (SMILES)	MIC [1] [µM]	inhibition at 12.5 µg/mL [2] [%]	MIC [3, 15] [µM]	MIC [3, 16] [µM]	MIC [4, 17] [µM]	MIC [5] [µM]	MIC [6] [µM]	MIC [7, 18] [µM]	MIC [8, 19] [µM]	MIC [9, 20] [µM]	MIC [10, 21] [µM]	MIC ([11]; Salmonella enterica) [µM]	MIC [12, 22] [µM]	also measured
C=CC[N+]12CCC(CC1)C(NC(=O)CCCCCCCCCCCCCCC)C2 (stereo not shown) [QC16-Ally]	31	~100	15	15	16	15	3	25	> 100	> 100	> 100	> 125	> 125	–
C=CC[N+]12CCC(CC1)C(NC(=O)CCCCCCCCCCCCC)C2 (stereo not shown) [QC14-Ally]	25	~100	20	20	8	20	6	50	25	50	15	> 125	> 125	inhibition of bacterial growth at ½ MIC [13]: unable to inhibit bacterial growth
CCCCCCCCCCCC[N+](C)(C)Cc1ccccc1.[Br-] [BAB, benzyldimethyldodecylammonium bromide, reference compound]	–	–	10	–	–	–	–	–	–	–	–	–	–	Minimum Inhibitory Concentration (MIC) Staphylococcus aureus Clinical/MRSA ([1]; MHB): 25 µM; MIC ([4]; MHB, read-out: Minimum Inhibitory Concentration (MIC) Listeria monocytogenes ATCC7644): 10 µM; MIC ([7]; MHB, read-out: Minimum Inhibitory Concentration (MIC) Staphylococcus aureus ATCC33591): 25 µM; MIC ([8]; MHB, read-out: Minimum Inhibitory Concentration (MIC) Bacillus cereus ATCC14579): 13 µM; MIC ([9]; MHB, read-out: Minimum Inhibitory Concentration (MIC) Escherichia coli ATTC25922): 63 µM; MIC ([10]; MHB, read-out: Minimum Inhibitory Concentration (MIC) Enterococcus faecalis ATCC29212): 15 µM; MIC [11]: 50 µM; Fold reduction in MIC [14]: 32; MIC ([12]; MHB, read-out: Minimum Inhibitory Concentration (MIC) Pseudomonas aeruginosa ATTC27853): >125 µM
